Results taken from ChEMBL document CHEMBL2429788, “Chiral linkers to improve selectivity of double-headed neuronal nitric oxide synthase inhibitors” (Bioorg Med Chem Lett, 2013).

What was measured:
[1] = target: T1, Nitric oxide synthase 3 (Bos taurus, UniProt P29473)
T1 sequence (P29473 whole entry): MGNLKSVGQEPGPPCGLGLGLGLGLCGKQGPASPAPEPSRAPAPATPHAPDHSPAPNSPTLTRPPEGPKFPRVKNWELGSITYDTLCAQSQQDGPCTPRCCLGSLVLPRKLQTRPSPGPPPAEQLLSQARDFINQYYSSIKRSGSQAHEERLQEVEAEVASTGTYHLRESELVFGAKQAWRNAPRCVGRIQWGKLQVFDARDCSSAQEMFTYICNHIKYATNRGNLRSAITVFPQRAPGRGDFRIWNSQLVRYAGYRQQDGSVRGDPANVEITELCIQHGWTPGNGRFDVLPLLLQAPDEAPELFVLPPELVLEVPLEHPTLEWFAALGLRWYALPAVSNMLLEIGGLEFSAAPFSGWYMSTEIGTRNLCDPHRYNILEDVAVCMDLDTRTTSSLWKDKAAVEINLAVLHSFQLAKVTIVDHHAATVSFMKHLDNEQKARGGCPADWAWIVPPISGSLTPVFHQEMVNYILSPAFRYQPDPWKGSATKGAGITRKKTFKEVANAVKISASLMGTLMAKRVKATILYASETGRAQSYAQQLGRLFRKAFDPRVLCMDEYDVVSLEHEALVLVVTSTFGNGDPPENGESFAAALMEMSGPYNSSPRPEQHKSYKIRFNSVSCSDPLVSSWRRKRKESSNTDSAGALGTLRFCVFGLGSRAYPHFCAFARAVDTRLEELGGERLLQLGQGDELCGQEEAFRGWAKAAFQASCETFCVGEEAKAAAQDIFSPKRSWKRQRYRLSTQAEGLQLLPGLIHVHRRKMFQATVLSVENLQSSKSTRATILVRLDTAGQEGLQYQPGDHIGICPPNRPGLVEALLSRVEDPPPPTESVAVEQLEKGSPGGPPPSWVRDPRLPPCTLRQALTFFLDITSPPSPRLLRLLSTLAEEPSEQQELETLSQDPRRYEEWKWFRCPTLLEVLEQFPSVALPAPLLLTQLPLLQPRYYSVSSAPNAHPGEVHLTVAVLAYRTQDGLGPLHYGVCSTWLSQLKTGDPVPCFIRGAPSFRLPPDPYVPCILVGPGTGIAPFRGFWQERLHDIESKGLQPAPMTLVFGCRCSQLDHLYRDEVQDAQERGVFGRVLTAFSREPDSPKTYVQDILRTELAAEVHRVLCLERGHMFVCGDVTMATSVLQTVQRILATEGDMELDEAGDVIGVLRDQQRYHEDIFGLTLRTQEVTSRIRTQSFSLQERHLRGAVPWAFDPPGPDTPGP
Description: Inhibition of bovine recombinant eNOS expressed in Escherichia coli using L-arginine as substrate up to 180 seconds by hemoglobin capture assay

[2] = target: T2, Nitric oxide synthase, inducible (Mus musculus, UniProt P29477)
T2 sequence (P29477 whole entry): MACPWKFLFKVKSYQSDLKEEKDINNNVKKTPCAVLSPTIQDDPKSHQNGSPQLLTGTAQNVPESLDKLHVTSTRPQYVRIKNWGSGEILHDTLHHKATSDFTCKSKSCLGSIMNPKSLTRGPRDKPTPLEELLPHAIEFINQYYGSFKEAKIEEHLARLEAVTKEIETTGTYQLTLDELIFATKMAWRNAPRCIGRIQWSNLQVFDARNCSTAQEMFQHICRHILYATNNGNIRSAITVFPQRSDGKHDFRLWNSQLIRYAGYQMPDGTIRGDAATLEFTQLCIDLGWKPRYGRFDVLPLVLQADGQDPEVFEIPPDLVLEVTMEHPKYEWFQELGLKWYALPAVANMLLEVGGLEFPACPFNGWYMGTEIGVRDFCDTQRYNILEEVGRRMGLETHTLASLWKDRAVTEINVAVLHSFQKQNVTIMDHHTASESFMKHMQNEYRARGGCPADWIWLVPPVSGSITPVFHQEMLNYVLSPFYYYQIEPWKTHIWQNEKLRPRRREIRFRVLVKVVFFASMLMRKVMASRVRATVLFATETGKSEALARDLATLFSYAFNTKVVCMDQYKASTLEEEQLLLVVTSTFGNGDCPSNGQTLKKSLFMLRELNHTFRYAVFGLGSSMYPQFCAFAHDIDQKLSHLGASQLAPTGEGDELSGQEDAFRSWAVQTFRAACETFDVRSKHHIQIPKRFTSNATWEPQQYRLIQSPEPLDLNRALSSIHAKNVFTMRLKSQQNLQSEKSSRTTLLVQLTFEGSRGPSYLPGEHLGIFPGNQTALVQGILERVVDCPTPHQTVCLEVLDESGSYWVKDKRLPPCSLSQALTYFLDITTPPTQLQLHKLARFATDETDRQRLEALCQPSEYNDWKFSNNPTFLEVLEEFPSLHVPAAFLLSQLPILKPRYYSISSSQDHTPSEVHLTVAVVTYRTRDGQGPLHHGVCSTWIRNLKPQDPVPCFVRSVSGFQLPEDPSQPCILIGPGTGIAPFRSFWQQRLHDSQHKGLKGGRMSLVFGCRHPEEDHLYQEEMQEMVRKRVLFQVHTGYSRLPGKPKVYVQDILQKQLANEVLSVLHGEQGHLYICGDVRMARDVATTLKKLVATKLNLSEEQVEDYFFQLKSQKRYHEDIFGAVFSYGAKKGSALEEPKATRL
Description: Inhibition of mouse recombinant iNOS expressed in Escherichia coli using L-arginine as substrate up to 180 seconds by hemoglobin capture assay

In the case of `Cc1cc(N)nc(COCCOCc2cc(C)cc(N)n2)c1`, the Ki [1] is reported as 5.26 µM and the Ki [2] is reported as 2.93 µM.
